Legend:
Type in all cases: cell-based, human
[1] = tested on: ER negative MDA-MB231 breast cancer cells; assay: Breast cancer cell proliferation (MTT assay), MDA-MB231
Method: Estrogen receptor (ER) positive MCF-7, and ER negative MDA-MB231 cells were plated in 5 mM fructose or glucose for times between 8-72 h, and proliferative rates measured using MTT assay. *, p<0.05; **, p<0.01.
FIG. 5 depicts fructose-mediated increased breast cancer proliferation in accordance with an embodiment of the present invention. ER positive MCF-7, and ER negative MDA-MB231 cells were plated in a range of fructose or glucose concentrations (5-25 mM) for 72 h, after which proliferative rates were measured using an MTT assay. *, p<0.05 for concentrations between 5-25 mM fructose versus glucose.
Standard media for breast cancer cell culture contain either 5-7 mM (low) and 12-25 mM (high) glucose concentrations. Estrogen receptor (ER) positive MCF-7, and ER negative MDA-MB231 cells were cultured overnight in 2 mM glucose standard DMEM medium containing 10% fetal bovine serum prior to incubation for periods between 8, and 72 hours in standard DMEM medium containing 10% fetal bovine serum, and 5 mM glucose or 5 mM fructose.
Proliferative rates were then measured in replicate (minimum of 6) aliquot wells of the breast cancer cells grown in glucose, or fructose containing medium. […] In separate experiments, proliferative rates of the MCF-7, and MDA-MB231 breast cancer cells were compared following culture in a range of fructose, and glucose concentrations (2-25 mM) for 72 hours.

[2] = tested on: fructokinase-1 (FK-1) mRNA; assay: Fructokinase-1 mRNA by Northern blot in MCF-7 cells; conditions: MCF-7, 5.5 mM fructose, 24 h
Method: FIG. 9 depicts Northern blot analysis of fructokinase-1 mRNA levels in MCF-7 breast cancer cells in accordance with an embodiment of the present invention. 20 μg total RNA was used to measure FK-1 mRNA levels in the MCF-7 cells following growth in 2 mM glucose, 5.5 mM glucose, or 5.5 mM fructose for 24 h. FK-1 was also detected in human liver, with lower levels in muscle tissue.
In additional studies, the inventors used Northern blot to confirm significant FK-1 mRNA expression in the breast cancer cells. As depicted in FIG. 9, fructokinase-1 mRNA expression was detected in MCF-7 cells cultured in 2, and 5.5 mM glucose, and 5.5 mM fructose, and in human muscle and liver tissue.

[3] = tested on: PANC-1 pancreatic cancer cells; assay: [1,2-13C2] stable isotope metabolic profiling in PANC-1 cells
Method: FIG. 28 depicts the metabolism of fructose and glucose in pancreatic cancer cells in accordance with an embodiment of the present invention. Lactate generation from glycolysis (a), and hexose oxidation in the pentose and tricarboxylic acid cycles (b) following treatment of PANC-1 cells with 2 mM glucose, 5.5 mM glucose, and 5.5 mM fructose for 72 h. […] In (b), the ^13C to ^12C ratio in the CO2 released from the PANC-1 cells is presented.
FIG. 29 depicts fatty acid synthesis from glucose versus fructose in accordance with an embodiment of the present invention. Fatty acid synthesis represented by (a), ^13C-labelled oleate, (b) ^13C-labelled arachidic acid, and (c) ^13C-labelled 24-carbon fatty acid fraction following treatment of PANC-1 cells with 2 mM, and 5.5 mM glucose, and 5.5 mM fructose for 72 h. For the fatty acids, the fraction of ^13C-labeled oleate, arachidic acid or 24-carbon fatty acid is expressed as percentage of total oleate, arachidic acid or 24-carbon fatty acids, respectively.
FIG. 30 depicts ribose and deoxyribose synthesis following glucose and fructose treatment in accordance with an embodiment of the present invention.
Metabolism comprises anabolic (converting small molecules into big ones) and catabolic processes (converting food into useful energy), predicts the functional state of a cell, and analyzes the levels of the end products (metabolites) of anabolism and catabolism. […] The inventors employed [1, 2-^13C2] glucose, or [1,2-^13C2] fructose stable isotope-based dynamic metabolic profiling (SiDMAP, Los Angeles, US) to track and quantify changes in glucose, and fructose carbon re-distribution among major metabolic pathways in pancreatic cancer cells (Lee W N, Boros L G, Puigjaner J, Bassilian S, Lim S, Cascante M. Mass istopomer study of transketolase-transaldolase pathways of the pentose cycle with [1,2-^13C2]glucose. Am J Physiol 274:E843-51, 1998; Lee W N, Byerley L O, Bassilian S, Ajie H O, Clark I, Edmond J. Isotopomer study of lipogenesis in human hepatoma cells in culture: contribution of carbon and hydrogen atoms from glucose. […]

Structure (SMILES): O=C(CO)[C@@H](O)[C@H](O)[C@H](O)CO [fructose]
- proliferative rates in fructose compared to glucose ([1]; MDA-MB231, 5 mM fructose vs 5 mM glucose, 8-72 h): higher proliferative rates
- proliferative rates in 5 mM fructose compared to 25 mM glucose ([1]; MDA-MB231, 72 hours, 5 mM fructose vs 5-fold higher glucose (25 mM)): higher proliferative rates
- FK-1 mRNA expression (Northern blot) [2]: Highest FK-1 expression
- pentose phosphate shunt pathway used (oxidative G6PDH vs non-oxidative TKK) ([3]; PANC-1, 5.5 mM sugar, 72 h): preferentially metabolized by TKK
- lactate and CO2 production lower for fructose in comparison to glucose ([3]; PANC-1, 13C-labeled sugar, 72 h): 3-4 fold
- 13C-labeled sugar metabolized for fatty acid synthesis ([3]; PANC-1, 72 h, fructose compared to glucose): comparatively less
